Test results as given in patent US9221838B2, “Inhibitors of AKT activity” (ALMAC DISCOVERY LIMITED, priority 2009, dated 2015).

Tests used:
Format in all cases: biochemical
AKT2 = target: T1, AKT2 (Homo sapiens, UniProt P31751); test: AKT Kinase Assay (IMAP fluorescent polarisation) vs AKT2
T1 construct: purchased SignalChem
Procedure: (§1) Testing of the compounds was performed using an AKT Kinase Assay:
(§2) Activated AKT isoforms 1, 2 and 3 were assayed utilising a 5′ FAM Crosstide (Seq. GRPRTSSFAEG-OH)(SEO ID NO: 1). The extent of kinase phosphorylation was determined by fluorescent polarisation using IMAP progressive binding reagent, which introduces binding beads which allow the reagent to specifically bind to phosphate residues via covalent co-ordination complex bonds.
(§3) iMAP binding solution stops Crosstide/kinase interaction and specifically binds phosphorylated substrates. The degree of phosphorylation is determined by fluorescent polarisation (excitation 485 nm; emission 528 nm) or the reduction in speed of rotation of the excited substrate.
(§4) The following materials were used in the assay: • a) Activated AKT isoforms (SignalChem.) dissolved in Complete Reaction buffer at a pre-determined concentration selected so that the assay was carried out in the linear range. • b) AKT substrate peptide: FAM Crosstide (R7110) Molecular Devices, diluted in complete reaction buffer. • c) iMAP Progressive Screening Express Kit (R8127) Molecular Devices • d) Complete Reaction Buffer containing 0.1% BSA, 10 mM Tris-HCl, 10 mM MgCl2, 0.05% NaN3 and 0.01% phosphate free BSA, 1 mM DTT • e) Progressive Binding Solution containing 75% Buffer A, 25% Buffer B and low volume Binding Reagent which contains the binding entity for the assay • f) ATP diluted in complete reaction buffer • g) Black polystyrene 384 well assay plates (Nunc). • h) Biotek Synergy 4 Hybrid Plate reader.
(§5) 5 μl of test compound was dissolved in DMSO (Sigma Aldrich) and serially diluted in complete reaction buffer to give a fourteen point half log dose response and plated into 384 well black plates. The compound was incubated at room temperature with activated AKT isoform ([…] ) at the pre-determined concentration, for 45 minutes.
(§6) 2.5 μl of ATP solution mixed with 2.5 μl of AKT substrate peptide (FAM Crosstide (R7110) Molecular Devices) were dispensed into each well and the plate centrifuged at 1000 rpm for 20 seconds to ensure homogenous mixing of reagents. The reaction mix was incubated in the dark for one hour at room temperature.
(§7) The kinase reaction was stopped by the addition of Progressive Binding Solution and the mixture allowed to equilibrate for one hour in the dark, at room temperature.
(§8) The fluorescent polarisation generated in each well was determined using a […] Synergy 4 Hybrid plate reader. In brief, each reaction solution was excited at 485 nm with the emission measured at 528 nm in both the parallel and perpendicular pathway.
(§9) The polarisation value generated in each well was calculated by Gen5 software (Biotek) and the % inhibition of kinase activity compared to vehicle control was calculated via GraphPad Prism. IC50 values for each compound were calculated by non-linear regression analysis using Prism software.
(§10) All plates were internally controlled by two methods. Firstly, by calculating the signal:noise ratio; based on kinase polarisation without inhibitor and polarisation generated by complete reaction buffer in the absence of activated kinase. Secondly by determining IC50 values generated by known inhibitors of the AKT isoforms.

AKT3 = target: T2, AKT3 (Homo sapiens, UniProt Q9Y243); test: AKT Kinase Assay (IMAP fluorescent polarisation) vs AKT3
T2 construct: purchased SignalChem
T2 sequence (Q9Y243 whole entry): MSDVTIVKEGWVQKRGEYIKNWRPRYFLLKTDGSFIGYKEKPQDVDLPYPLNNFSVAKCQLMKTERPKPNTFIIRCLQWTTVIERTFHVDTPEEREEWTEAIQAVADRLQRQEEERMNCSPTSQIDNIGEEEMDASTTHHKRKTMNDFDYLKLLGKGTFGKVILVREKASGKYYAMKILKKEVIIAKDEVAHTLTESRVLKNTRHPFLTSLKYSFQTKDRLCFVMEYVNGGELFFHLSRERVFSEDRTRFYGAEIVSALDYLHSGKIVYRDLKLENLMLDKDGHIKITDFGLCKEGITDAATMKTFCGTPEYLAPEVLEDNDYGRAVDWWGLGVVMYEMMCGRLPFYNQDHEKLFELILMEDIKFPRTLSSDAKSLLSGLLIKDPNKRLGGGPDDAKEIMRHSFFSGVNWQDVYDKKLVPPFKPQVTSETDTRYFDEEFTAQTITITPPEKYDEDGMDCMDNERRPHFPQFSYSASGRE
Procedure: as §1, §2, §3, §4, §5, §6, §7, §8, §9, §10

AKT1 = target: T3, AKT1 (Homo sapiens, UniProt P31749); test: AKT Kinase Assay (IMAP fluorescent polarisation) vs AKT1
T3 construct: purchased SignalChem
T3 sequence (P31749 whole entry): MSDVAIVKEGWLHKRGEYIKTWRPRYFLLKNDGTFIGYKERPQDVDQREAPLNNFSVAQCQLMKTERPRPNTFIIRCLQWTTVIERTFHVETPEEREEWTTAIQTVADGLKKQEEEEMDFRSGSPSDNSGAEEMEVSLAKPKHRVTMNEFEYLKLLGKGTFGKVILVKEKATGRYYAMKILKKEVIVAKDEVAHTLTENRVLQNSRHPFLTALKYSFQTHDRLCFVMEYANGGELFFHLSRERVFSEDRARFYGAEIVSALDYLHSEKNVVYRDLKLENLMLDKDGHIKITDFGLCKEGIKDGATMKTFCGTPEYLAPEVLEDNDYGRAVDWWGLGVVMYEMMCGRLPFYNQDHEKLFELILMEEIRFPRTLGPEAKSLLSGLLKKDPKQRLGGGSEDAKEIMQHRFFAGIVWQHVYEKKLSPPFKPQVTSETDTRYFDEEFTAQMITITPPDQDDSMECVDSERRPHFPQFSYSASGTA
Procedure: as §1, §2, §3, §4, §5, §6, §7, §8, §9, §10

T1 sequence (P31751 whole entry): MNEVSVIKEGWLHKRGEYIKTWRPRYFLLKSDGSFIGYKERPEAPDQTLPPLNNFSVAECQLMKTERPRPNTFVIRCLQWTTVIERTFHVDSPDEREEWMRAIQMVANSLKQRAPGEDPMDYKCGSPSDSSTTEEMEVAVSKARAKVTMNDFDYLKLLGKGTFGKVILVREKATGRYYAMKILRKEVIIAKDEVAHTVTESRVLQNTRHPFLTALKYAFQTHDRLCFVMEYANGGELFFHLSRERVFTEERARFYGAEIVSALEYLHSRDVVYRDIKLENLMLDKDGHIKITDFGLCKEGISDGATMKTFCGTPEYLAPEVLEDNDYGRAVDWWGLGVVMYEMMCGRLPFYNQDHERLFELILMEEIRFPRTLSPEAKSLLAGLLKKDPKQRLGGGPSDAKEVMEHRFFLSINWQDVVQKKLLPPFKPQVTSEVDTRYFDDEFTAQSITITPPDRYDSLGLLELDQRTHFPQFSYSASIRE

SMILES	IC50 (AKT2) [nM]	IC50 (AKT3) [nM]	IC50 (AKT1) [nM]
NC1(c2ccc(-c3nc4c(cc3-c3ccccc3)C(=O)CCCC4)cc2)CCC1 [Example 20, 2-(4-(1-aminocyclobutyl)phenyl)-3-phenyl-6,7,8,9-tetrahydro-5H-cyclohepta[b]pyridin-5-one]	1000 to 10000	> 10000	100 to 1000
CCOC(=O)CN1C(=O)COc2nc(-c3ccc(C4(N)CCC4)cc3)c(-c3ccccc3)cc21 [Example 49, ethyl 2-(6-(4-(1-aminocyclobutyl)phenyl)-2-oxo-7-phenyl-2,3-dihydro-1H-pyrido[2,3-b][1,4]oxazin-1-yl)acetate]	100 to 1000	100 to 1000	100 to 1000
N#CCN1C(=O)COc2nc(-c3ccc(CN)cc3)c(-c3ccccc3)cc21 [Example 135, 2-(6-(4-(aminomethyl)phenyl)-2-oxo-7-phenyl-2,3-dihydro-1H-pyrido[2,3-b][1,4]oxazin-1-yl)acetonitrile]	≤ 100	1000 to 10000	100 to 1000
NC(=O)CN1C(=O)COc2nc(-c3ccc(C4(N)CCC4)cc3)c(-c3ccccc3)cc21 [Example 35, 2-(6-(4-(1-aminocyclobutyl)phenyl)-2-oxo-7-phenyl-2,3-dihydro-1H-pyrido[2,3-b][1,4]oxazin-1-yl)acetamide]	100 to 1000	> 10000	1000 to 10000
Cn1cnc(-c2nnc3n2CCc2nc(-c4ccc(C5(N)CCC5)cc4)c(-c4ccccc4)cc2-3)c1 [Example 29, 1-(4-(3-(1-methyl-1H-imidazol-4-yl)-9-phenyl-5,6-dihydro-[1,2,4]triazolo[3,4-f][1,6]naphthyridin-8-yl)phenyl)cyclobutanamine]	100 to 1000	> 10000	≤ 100
CCc1nnc2n1-c1cc(-c3ccccc3)c(-c3ccc(CN)cc3)nc1OC2 [Example 142, (4-(1-ethyl-8-phenyl-4H-pyrido[2,3-b][1,2,4]triazolo[4,3-d][1,4]oxazin-7-yl)phenyl)methanamine]	1000 to 10000	1000 to 10000	1000 to 10000
CS(=O)(=O)N1CCOc2nc(-c3ccc(C4(N)CCC4)cc3)c(-c3ccccc3)cc21 [Example 70, 1-(4-(1-(methylsulfonyl)-7-phenyl-2,3-dihydro-1H-pyrido[2,3-b][1,4]oxazin-6-yl)phenyl)cyclobutanamine]	100 to 1000	> 10000	100 to 1000
Cc1nc2c(n1O)CCc1nc(-c3ccc(C4(N)CCC4)cc3)c(-c3ccccc3)cc1-2 [Example 14, 7-(4-(1-aminocyclobutyl)phenyl)-2-methyl-8-phenyl-4,5-dihydro-3H-imidazo[4,5-f]quinolin-3-ol]	1000 to 10000	1000 to 10000	100 to 1000
NC1(c2ccc(-c3nc4c(cc3-c3ccccc3)-n3c(nnc3CC(F)(F)F)CO4)cc2)CCC1 [Example 118, 1-(4-(8-phenyl-1-(2,2,2-trifluoroethyl)-4H-pyrido[2,3-b][1,2,4]triazolo[4,3-d][1,4]oxazin-7-yl)phenyl)cyclobutanamine]	1000 to 10000	1000 to 10000	100 to 1000
CC1(C)CC(=O)c2cc(-c3ccccc3)c(-c3ccc(C4(N)CCC4)cc3)nc2C1 [Example 18, 2-(4-(1-aminocyclobutyl)phenyl)-7,7-dimethyl-3-phenyl-7,8-dihydroquinolin-5(6H)-one]	1000 to 10000	> 10000	1000 to 10000
NC1(c2ccc(-c3nc4c(cc3-c3ccccc3)NCCO4)cc2)CCC1 [Example 37, 1-(4-(7-phenyl-2,3-dihydro-1H-pyrido[2,3-b][1,4]oxazin-6-yl)phenyl)cyclobutanamine]	1000 to 10000	> 10000	100 to 1000
COCC1Oc2nc(-c3ccc(C4(N)CCC4)cc3)c(-c3ccccc3)cc2N(CC#N)C1=O (stereo not drawn) [Example 95, 2-(6-(4-(1-aminocyclobutyl)phenyl)-3-(methoxymethyl)-2-oxo-7-phenyl-2,3-dihydro-1H-pyrido[2,3-b][1,4]oxazin-1-yl)acetonitrile]	100 to 1000	> 10000	100 to 1000
COCCN1C(=O)COc2nc(-c3ccc(C4(N)CCC4)cc3)c(-c3ccccc3)cc21 [Example 51, 6-(4-(1-aminocyclobutyl)phenyl)-1-(2-methoxyethyl)-7-phenyl-1H-pyrido[2,3-b][1,4]oxazin-2(3H)-one]	100 to 1000	1000 to 10000	100 to 1000
N[C@]1(c2ccc(-c3nc4c(cc3-c3ccccc3)-n3c(n[nH]c3=O)CO4)cc2)C[C@H](O)C1 [Example 141, 7-(4-((1s,3s)-1-amino-3-hydroxycyclobutyl)phenyl)-8-phenyl-2,4-dihydro-1H-pyrido[2,3-b][1,2,4]triazolo[4,3-d][1,4]oxazin-1-one]	100 to 1000	100 to 1000	100 to 1000
NC1(c2ccc(-c3nc4c(cc3-c3ccccc3)C(=O)NCC4)cc2)CCC1 [Example 22, 2-(4-(1-aminocyclobutyl)phenyl)-3-phenyl-7,8-dihydro-1,6-naphthyridin-5(6H)-one]	1000 to 10000	> 10000	≤ 100
C[C@]1(O)C[C@@](N)(c2ccc(-c3nc4c(cc3-c3ccccc3)-n3c(n[nH]c3=O)CO4)cc2)C1 [Example 79, 7-(4-((1r,3r)-1-amino-3-hydroxy-3-methylcyclobutyl)phenyl)-8-phenyl-2,4-dihydro-1H-pyrido[2,3-b][1,2,4]triazolo[4,3-d][1,4]oxazin-1-one]	100 to 1000	1000 to 10000	≤ 100
NCc1ccc(-c2nc3c(cc2-c2ccccc2)N(CC(F)(F)F)C(=O)CO3)cc1 [Example 146, 6-(4-(Aminomethyl)phenyl)-7-phenyl-1-(2,2,2-trifluoroethyl)-1H-pyrido[2,3-b][1,4]oxazin-2(3H)-one]	100 to 1000	> 10000	1000 to 10000
NC1(c2ccc(-c3nc4c(cc3-c3ccccc3)NC(=O)CCN4)cc2)CCC1 [Example 104, 7-(4-(1-aminocyclobutyl)phenyl)-8-phenyl-4,5-dihydro-1H-pyrido[2,3-b][1,4]diazepin-2(3H)-one]	1000 to 10000	> 10000	100 to 1000
N#CCN1CCOc2nc(-c3ccc(C4(N)CCC4)cc3)c(-c3ccccc3)cc21 [Example 43, 2-(6-(4-(1-aminocyclobutyl)phenyl)-7-phenyl-2,3-dihydro-1H-pyrido[2,3-b][1,4]oxazin-1-yl)acetonitrile]	≤ 100	> 10000	100 to 1000
NC1(c2ccc(-c3nc4c(cc3-c3ccccc3)N(c3cccnc3)CCO4)cc2)CCC1 [Example 91, 1-(4-(7-phenyl-1-(pyridin-3-yl)-2,3-dihydro-1H-pyrido[2,3-b][1,4]oxazin-6-yl)phenyl)cyclobutanamine]	≤ 100	1000 to 10000	100 to 1000
CCN1C(=O)COc2nc(-c3ccc([C@]4(N)C[C@@H](O)C4)cc3)c(-c3ccccc3)cc21 [Example 139, 6-(4-((1s,3s)-1-amino-3-hydroxycyclobutyl)phenyl)-1-ethyl-7-phenyl-1H-pyrido[2,3-b][1,4]oxazin-2(3H)-one]	100 to 1000	1000 to 10000	100 to 1000
NC1(c2ccc(-c3nc4c(cc3-c3ccccc3)-n3c(nnc3-c3ccncc3)CO4)cc2)CCC1 [Example 123, 1-(4-(8-phenyl-1-(pyridin-4-yl)-4H-pyrido[2,3-b][1,2,4]triazolo[4,3-d][1,4]oxazin-7-yl)phenyl)cyclobutanamine]	1000 to 10000	1000 to 10000	≤ 100
CC(C)Cc1nnc2n1-c1cc(-c3ccccc3)c(-c3ccc(C4(N)CCC4)cc3)nc1OC2 [Example 115, 1-(4-(1-isobutyl-8-phenyl-4H-pyrido[2,3-b][1,2,4]triazolo[4,3-d][1,4]oxazin-7-yl)phenyl)cyclobutanamine]	100 to 1000	1000 to 10000	100 to 1000
CN(C)CCN1C(=O)COc2nc(-c3ccc(C4(N)CCC4)cc3)c(-c3ccccc3)cc21 [Example 34, 6-(4-(1-aminocyclobutyl)phenyl)-1-(2-(dimethylamino)ethyl)-7-phenyl-1H-pyrido[2,3-b][1,4]oxazin-2(3H)-one]	1000 to 10000	> 10000	1000 to 10000
